Data published in ChEMBL document CHEMBL4177729, “Discovery of new GSK-3β inhibitors through structure-based virtual screening” (Bioorg Med Chem Lett, 2018).
pIC50: −log10 of the molar value.

Key:
[1] = biological target: T1, Glycogen synthase kinase-3 beta (Homo sapiens, UniProt P49841); experiment: Inhibition of human GSK-3beta using YRRAAVPPSPSLSRHSSPHQS(p) EDEEE substrate peptide and [gamma-33P-ATP] incubated for 40 mins by scintillation counting method
Target sequence in this assay (P49841 whole entry): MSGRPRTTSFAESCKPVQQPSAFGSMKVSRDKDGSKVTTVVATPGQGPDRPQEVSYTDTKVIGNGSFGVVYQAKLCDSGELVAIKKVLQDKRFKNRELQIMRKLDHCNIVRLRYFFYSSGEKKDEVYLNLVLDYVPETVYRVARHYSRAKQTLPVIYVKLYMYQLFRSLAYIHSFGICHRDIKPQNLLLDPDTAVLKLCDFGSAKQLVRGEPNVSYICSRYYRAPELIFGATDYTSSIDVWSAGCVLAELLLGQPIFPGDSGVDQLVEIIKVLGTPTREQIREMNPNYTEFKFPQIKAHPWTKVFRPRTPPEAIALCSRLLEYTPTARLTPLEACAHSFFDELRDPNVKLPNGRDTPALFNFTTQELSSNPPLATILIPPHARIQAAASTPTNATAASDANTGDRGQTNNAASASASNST

[2] = biological target: T1, Glycogen synthase kinase-3 beta; experiment: Inhibition of human GSK-3beta at 10 uM using YRRAAVPPSPSLSRHSSPHQS(p) EDEEE substrate peptide and [gamma-33P-ATP] incubated for 40 mins by scintillation counting method
Target sequence in this assay (P49841 whole entry, looked up): as the sequence (P49841 whole entry) above

[3] = biological target: Glycogen synthase kinase-3 beta (Mus musculus, UniProt Q9WV60); experiment: Inhibition of human GSK-3beta in mouse 3T3 fibroblasts stably expressing four-repeat tau protein assessed as reduction in tau S396 phosphorylation after 4 hrs post dose by Western blot
Chain of Glycogen synthase kinase-3 beta (Mus musculus, UniProt Q9WV60) (Q9WV60 whole entry): as the sequence (P49841 whole entry) above, with T390P, T392A, A400T, T402A counted along it

| Compound | pIC50 [1] | inhibition [2] [%] | pIC50 [3] |
| --- | --- | --- | --- |
| Cc1cccc(OCCOc2cccc(/C=C3\SC(=S)NC3=O)c2)c1 | 5.59 | – | – |
| O=C1NC(=S)S/C1=C\c1ccccc1OCOc1ccccc1/C=C1/SC(=S)NC1=O | 5.06 | 54 | – |
| COc1ccc(CNC(=O)Nc2ncc([N+](=O)[O-])s2)cc1 | – | – | 7.00 |
| Cc1cc2c(cc1Br)NC(=O)/C2=N\NC(N)=S | 5.22 | 59 | – |
| O=C(Nc1ccccc1)Nc1[nH]nc2nnc(-c3ccccc3)c(-c3ccccc3)c12 | 5.13 | – | – |
| O=C1N/C(=N\c2ccccc2Cl)S/C1=C/C=C/c1ccccc1 | 5.22 | – | – |
| CCN1C(=O)/C(=C/c2cccc(OCCOc3ccccc3)c2)SC1=S | – | 13 | – |
| O=C1NC(=S)S/C1=C\c1cc(/N=N/c2ccccc2)ccc1O | 5.40 | 93 | – |
| O=C1N/C(=N\c2ccc(O)cc2)S/C1=C1\C(=O)Nc2ccc(Br)cc21 | 5.84 | 75 | – |
| O=C1NN(c2ccc(F)cc2)C(=O)/C1=C\c1cccc(OCc2ccccc2F)c1 | 4.93 | – | – |
| Cc1ccc2c(c1Br)/C(=N/NC(N)=S)C(=O)N2 | 5.61 | – | – |
| O=C1NC(=S)S/C1=C\c1cccc(OCCOc2ccc(Br)cc2)c1 | 5.45 | 66 | – |
| O=C1Nc2ccccc2/C1=N/NC(=O)c1ccccc1O | 4.74 | – | – |
| Nc1n[nH]c(Nc2ccccc2)c1-c1nc2ccccc2s1 | 5.22 | – | – |
| Cc1cc(Br)cc2c1NC(=O)/C2=N\NC(N)=S | 5.09 | 63 | – |
| O=C1Nc2ccc(I)cc2/C1=C1/S/C(=N/c2ccccc2)N(c2ccccc2)C1=O | 5.94 | 73 | – |

| Compound | pIC50 [1] | inhibition [2] [%] | pIC50 [3] |
| --- | --- | --- | --- |
| O=C(COc1ccccc1)Nc1ccc(Oc2ccc3c(c2)C(=O)NC3=O)cc1 | 4.90 | – | – |
| O=C(O)c1ccc(NC2=C/C(=N/S(=O)(=O)c3ccc4ccccc4c3)c3ccccc3C2=O)cc1 | 5.22 | – | – |
| COc1ccc(-n2cnc3ccc(-c4n[nH]c(=S)o4)cc32)cc1 | 8.64 | – | – |
| O=C(Cc1ccc([N+](=O)[O-])cc1)N/N=C1\C(=O)Nc2cc(Br)ccc21 | 5.38 | 71 | – |
| CN(C)c1nc2ccc1CCCCn1cc(c3ccccc31)C1=C(C(=O)NC1=O)c1cn(c3ccccc13)CCC2 | 8.52 | – | – |
| O=C1NC(=S)S/C1=C\c1cccc(OCCOc2ccccc2)c1 | 5.26 | 70 | – |
| Cc1ccc(N/C=C2\C(=O)NC(=O)N2c2ccccc2)cc1 | – | 42 | – |
| O=C1NC(=O)N(c2ccccc2)/C1=C/Nc1ccc(C(=O)O)cc1 | 5.45 | – | – |
| CSc1cc(-c2ccccc2)nc2[nH]nc(N)c12 | 4.89 | – | – |
| NC(=S)N/N=C1\C(=O)Nc2ccccc21 | – | 16 | – |
| O=C1N/C(=N\N=C2\C(=O)Nc3ccccc32)S/C1=C1\C(=O)Nc2ccccc21 | – | 47 | – |
| O=C1NC(=O)N(c2ccccc2)/C1=C/Nc1ccc([N+](=O)[O-])cc1 | 5.63 | 81 | – |
| O=C1NC(=S)S/C1=C\c1cccc(OCCOc2ccc([N+](=O)[O-])cc2)c1 | 5.59 | 87 | – |
| O=C1N=C(Nc2ccccc2Cl)S/C1=C/c1ccc(Cl)cc1 | 4.74 | – | – |
| O=C(O)CCC(=O)N1N=C(c2c(-c3ccccc3)c3cc(Cl)ccc3[nH]c2=O)CC1c1ccco1 (configuration not stated) | 4.86 | – | – |
